Laboratory results: US9682929B2, “Metalloprotease inhibitors, methods for producing same, and therapeutics uses thereof” (Centre National de la Recherche Scientifique-CNRS, priority 2013, dated 2017)

Legend:
metalloelastase MMP-12 = target: T1, metalloelastase MMP-12 (Homo sapiens, UniProt P39900); test: Test for enzymatic inhibition of MMP-12 (colorimetric, thiopeptide substrate/DTNB); assay type: biochemical; conditions: purified human enzyme; for IC50: 1 h preincubation, 150 μM substrate, read-out: IC50 MMP12; for Ki: read-out: Ki MMP12
T1 construct: purchased Anaspec, USA
T1 sequence (P39900 106-470): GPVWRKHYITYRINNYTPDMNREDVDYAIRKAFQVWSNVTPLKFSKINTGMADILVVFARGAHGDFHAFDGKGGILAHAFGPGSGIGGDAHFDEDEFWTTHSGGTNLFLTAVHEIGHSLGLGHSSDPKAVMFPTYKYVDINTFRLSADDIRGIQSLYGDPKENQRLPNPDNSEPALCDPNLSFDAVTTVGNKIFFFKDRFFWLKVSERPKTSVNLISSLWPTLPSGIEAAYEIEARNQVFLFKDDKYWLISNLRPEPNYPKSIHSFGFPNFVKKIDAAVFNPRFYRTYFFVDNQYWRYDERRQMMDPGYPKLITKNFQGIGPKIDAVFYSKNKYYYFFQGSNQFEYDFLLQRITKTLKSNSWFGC
Procedure: (§1) Protocols of the Tests for Enzymatic Inhibition of MMP-9 and MMP-12
(§2) The enzymatic tests for screening compounds 1 to 7 were carried out in solution on two purified human enzymes: the gelatinase MMP-9 (Anaspec, USA) and the metalloelastase MMP-12 (Anaspec, USA).
(§3) The principle is based on the cleavage, by the MMP-9 or MMP-12 enzyme, of a chromogenic substrate: the thiopeptide (Ac-Pro-Leu-Gly-[2-mercapto-4-methylpentanoyl]-Leu-Gly-OC2H5) (Enzo Life Sciences, USA).
(§4) The hydrolysis of this thiopeptide produces a sulfhydryl group which reacts with Ellman's reagent: 5,5′-dithiobis(2-nitrobenzoic acid) (DTNB) to form 2-nitro-5-thiobenzoic acid (TNB), which is detected by its absorbance at 412 nm
(§5) The tests are carried out in the buffer 50 mM Hepes, 10 mM CaCl2, 0.5% Brij35, 1 mM DTNB, pH 7.0 containing the purified MMP-9 and MMP-12 enzymes diluted to the final concentration of 0.8 μg/ml.
(§6) After preincubation of the enzymes (1 h at ambient temperature in the dark) with or without the products tested (minimum of four doses serially diluted one-in-ten), the cleavage reactions are initiated by adding 150 μM (final concentration) of substrate in a total final volume of 100 μl (96-well plate format).
(§7) The plates containing the reactions are read in a microplate reader (Multiskan Ascent, ThermoElectron, France) in order to continuously measure the absorbance and to record values every […] for 3 h. Each condition is carried out in triplicate.
(§8) The concentration which inhibits 50% of the reaction (IC50) is determined from curves representing the absorbance (optical density) of the final reaction product (TNB) as a function of the doses tested. Each experiment is carried out at least twice.

gelatinase MMP-9 = target: T2, gelatinase MMP-9 (Homo sapiens, UniProt P14780); test: Test for enzymatic inhibition of MMP-9 (colorimetric, thiopeptide substrate/DTNB); assay type: biochemical; conditions: purified human enzyme; for IC50: 1 h preincubation, 150 μM substrate, read-out: IC50 MMP9; for Ki: read-out: Ki MMP9
T2 construct: purchased Anaspec, USA
T2 sequence (P14780 94-707): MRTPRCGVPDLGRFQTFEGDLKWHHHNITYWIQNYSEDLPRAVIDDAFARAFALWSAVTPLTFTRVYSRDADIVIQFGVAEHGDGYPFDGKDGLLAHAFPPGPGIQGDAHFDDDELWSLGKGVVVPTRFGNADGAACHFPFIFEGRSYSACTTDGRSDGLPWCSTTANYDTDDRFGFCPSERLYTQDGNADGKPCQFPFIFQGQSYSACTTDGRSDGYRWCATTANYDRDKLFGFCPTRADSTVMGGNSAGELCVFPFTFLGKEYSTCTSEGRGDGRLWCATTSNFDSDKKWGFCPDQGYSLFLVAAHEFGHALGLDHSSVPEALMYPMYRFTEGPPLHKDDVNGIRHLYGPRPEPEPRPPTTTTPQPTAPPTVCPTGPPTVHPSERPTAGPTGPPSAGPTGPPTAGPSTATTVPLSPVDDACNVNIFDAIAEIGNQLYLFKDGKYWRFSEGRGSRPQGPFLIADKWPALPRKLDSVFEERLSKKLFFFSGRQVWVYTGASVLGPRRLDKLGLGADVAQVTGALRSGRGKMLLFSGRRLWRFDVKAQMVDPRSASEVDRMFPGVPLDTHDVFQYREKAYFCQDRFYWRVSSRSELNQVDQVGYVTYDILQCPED
Procedure: as §1, §2, §3, §4, §5, §6, §7, §8

Compound	IC50 (metalloelastase MMP-12) [µM]	Ki (metalloelastase MMP-12) [µM]	IC50 (gelatinase MMP-9) [µM]	Ki (gelatinase MMP-9) [µM]
C=C[C@H](C(=O)N[C@@H](CCSC)C(=O)O)[C@H](O)CCCC [Compound 7, (S)-2-((2S,3R)-3-hydroxy-2-vinylheptanamido)-4-(methylthio)butanoic acid]	78.3	39.9	330	163
C=C[C@H](C(=O)N[C@@H](Cc1ccccc1)C(=O)NC1CCCCC1)[C@H](O)c1cc(OCc2ccc(OC)cc2)n(-c2ccccc2)n1 [Compound 3, (S)—N—((S)-1-(cyclohexylamino)-1-oxo-3-phenylpropan-2-yl)-2-((S)-hydroxy(5-(4-methoxybenzyloxy)-1-phenyl-1H-pyrazol-3-yl)methyl)but-3-enamide]	7.23	3.68	5	2.47
C=C[C@H](C(=O)N[C@@H](Cc1ccccc1)C(=O)NO)[C@H](O)c1cc(OCc2ccc(OC)cc2)n(-c2ccccc2)n1 [Compound 5, (S)-2-((S)-hydroxy-(5-(4-methoxybenzyloxy)-1-phenyl-1H-pyrazol-3-yl)methyl)-N—((S)-1-(hydroxyamino)-1-oxo-3-phenylpropan-2-yl)but-3-enamide]	22.3	11.4	19.8	9.78

Further molecules by falling IC50 (metalloelastase MMP-12), results first:

IC50 (metalloelastase MMP-12) [µM]	Ki (metalloelastase MMP-12) [µM]	IC50 (gelatinase MMP-9) [µM]	Ki (gelatinase MMP-9) [µM]	Compound
20.2	10.3	259	128	C=C[C@H](C(=O)N[C@@H](Cc1ccccc1)C(=O)O)[C@H](O)c1cc(OCc2ccc(OC)cc2)n(-c2ccccc2)n1 [Compound 4, (S)-2-((S)-2-((S)-hydroxy-(5-(4-methoxybenzyloxy)-1-phenyl-1H-pyrazol-3-yl)methyl)but-3-enamido)-3-phenylpropanoic acid]
20	10.2	126	62.2	C=C[C@H](C(=O)N[C@@H](Cc1ccccc1)C(=O)NC1CCCCC1)[C@H](O)c1ccc(-c2ccccc2)cc1 [Compound 2, (S)-2-((S)-biphenyl-4-yl(hydroxy)methyl)-N—((S)-1-(cyclohexylamino)-1-oxo-3-phenylpropan-2-yl)but-3-enamide]
19.5	9.95	18.1	8.95	C=C[C@H](C(=O)N[C@@H](Cc1ccccc1)C(=O)NC1CCCCC1)[C@@H](C)O [Compound 1, (S)—N—((S)-1-(cyclohexylamino)-1-oxo-3-phenylpropan-2-yl)-2-((R)-1-hydroxyethyl)but-3-enamide]
6.3	3.21	13.1	6.47	C=C[C@H](C(=O)N[C@@H](CC(=O)O)C(=O)O)[C@H](O)c1cc(OCc2ccc(OC)cc2)n(-c2ccccc2)n1 [Compound 6, (S)-2-((S)-2-((S)-hydroxy-(5-(4-methoxybenzyloxy)-1-phenyl-1H-pyrazol-3-yl)methyl)but-3-enamido)succinic acid]
